SMILES strings stand for the structures. “And” between values parts separate entries of the source, which are not always exact repeats. Equal values may be shown once.

Holding throughout (assay type): cell-based, mouse
In data set [1] the test system is BV-2 cells. Description: MTT assay of BV-2 cell viability. The settings on record: 24 h. How it is done:
(§1) BV-2 cells were cultured in DMEM/F-12 media supplemented with 10% (v/v) FBS and 1% (v/v) penicillin/streptomycin, and kept at 37 °C in a humidified incubator ([…], 5% CO2) for all studies. Cells with 80% confluency were used for experiments. At 24 h post-seeding, BV-2 cells were treated with either of the MFP compounds (at concentrations detailed below) or vehicle (0.1% (v/v) DMSO) and 1 µg/mL LPS for a period of 24 h. In some experiments (detailed in Results), BV-2 cells were exposed to MFP compounds for 2 h before a 24 h exposure to LPS and MFP compounds, and in some studies, in the presence of FABP4 siRNA using a 24 h treatment that we have previously employed (Low et al. [2021]). In brief, BV-2 cells were washed once 4 h post-seeding with blank DMEM/F-12 media. siRNA complexes (containing FABP4 siRNA, target sequence 5’-[…]-3’ or AllStar Negative Control siRNA, target sequence proprietary) were added dropwise onto the cells. siRNA complexes were prepared by mixing siRNA and HiPerfect transfection reagent together in FBS-free DMEM/F12 media and incubating for 15 min to allow the siRNA complexes to form. The cells were incubated with the siRNA complex for 5 min, after which, DMEM/F12 media containing FBS was added into each well to dilute the siRNA complexes to 5 nM.
To determine the most appropriate and tolerable concentration of MFP compounds in BV-2 cells, an MTT assay was performed. Following treatment with increasing concentrations of MFP compounds for 24 h, BV-2 cells were rinsed once with PBS prior to being incubated with 0.45 mg/mL MTT reagent for 4 h in a 37 °C, 5% CO2 incubator. After that, the MTT reagent was removed and 150 µL of DMSO was added into all wells for 30 min. The plate was then immediately read on a Perkin-Elmer Enspire fluorescence plate reader (Boston, MA) at 540 nm. Background subtraction was performed before the percentage cell viability was calculated and expressed as a ratio of mean absorbance of MFP-treated cells over mean absorbance of vehicle-treated cells.

Data set [2] has as its system LPS-activated BV-2 cells. Description: Intracellular ROS (DCF-DA) in LPS-activated BV-2 cells. The procedure: as §1, with “At 24 h post-seeding, BV-2 cells were treated with either of the MFP compounds (at concentrations detailed below) or vehicle (0.1% (v/v) DMSO) and 1 µg/mL LPS for a period of 24 h.” left out
Intracellular ROS in BV-2 cells, following treatment with MFP compounds and LPS, was detected using the widely-used membrane permeable probe, DCF-DA. Post treatment, BV-2 cells were rinsed once with warm HBSS prior to being incubated with 40 µM of DCF-DA for 30 min at 37°C, 5% CO2. The wells were then rinsed again with HBSS before being read on a Perkin-Elmer Enspire plate reader (λex: 488 nm, λem: 535 nm) as we have reported previously (Kagawa et al. [2023]).

Data set [3] relates to LPS-activated BV-2 cells. In words: Extracellular nitrite (Griess assay) from LPS-activated BV-2 cells. As to conditions: 50 µM, 1 µg/mL LPS 24 h. The procedure: (§2) BV-2 cells were cultured in DMEM/F-12 media supplemented with 10% (v/v) FBS and 1% (v/v) penicillin/streptomycin, and kept at 37 °C in a humidified incubator ([…], 5% CO2) for all studies. Cells with 80% confluency were used for experiments. At 24 h post-seeding, BV-2 cells were treated with either of the MFP compounds (at concentrations detailed below) or vehicle (0.1% (v/v) DMSO) and 1 µg/mL LPS for a period of 24 h. In some experiments (detailed in Results), BV-2 cells were exposed to MFP compounds for 2 h before a 24 h exposure to LPS and MFP compounds, and in some studies, in the presence of FABP4 siRNA using a 24 h treatment that we have previously employed (Low et al. [2021]). […]
For measurement of extracellular nitrite concentrations, the Griess assay was performed as per the manufacturer’s protocol (Molecular Probes, Eugene, OR) with minor changes. […] The absorbance of the media samples was measured on a Perkin-Elmer Enspire plate reader at 548 nm, with nitrite concentrations in media samples obtained by back calculating sample absorbance values back to a standard curve prepared through serial dilution of NaNO2 prepared in media.
(In general: The Griess reaction detects nitrite, a stable product of nitric oxide.)

For data set [4], the system named is LPS-activated BV-2 cells. Description: TNF-α ELISA of supernatant of LPS-activated BV-2 cells. The procedure: as §2
ELISA was performed as per manufacturer’s protocol to measure the concentration of TNF-α in the supernatant in which BV-2 cells were treated. […] 100 µL of Stop solution was added into each well before the plate was immediately read on a Perkin-Elmer Enspire fluorescence plate reader at 450 nm […] and 570 nm (absorbance). Absorbance values at 570 nm were subtracted from 450 nm to account for background. TNF-α concentration was normalised to total protein count (mg), as quantified by a BCA assay, and reported as pg/mg protein.
On the technique in general: An ELISA detects its analyte on a solid surface through an enzyme-linked reagent.

Where [5] appears, read: BV-2 cells pre-treated with LPS for 4 h, then 10 µM compound.

For the compound `O=C(O)c1cccc(NS(=O)(=O)c2ccc(Cl)c(Cl)c2)c1` [MFP-0012328], the “fold reduction in cell viability” value in data set [1] (75 µM and 100 µM of MFP-0012328, 100 µM of the other MFP compounds, range over the compounds) was 0.17–0.27 fold. In addition, the “BV-2 cell viability relative to vehicle control” value in data set [1] (2–50 µM, MTT) was “no significant differences”. Further, the “reduction of ROS production vs LPS-treated BV-2 cells” value in data set [2] (5 nM FABP4 siRNA, 10 µM MFP-0012328, or both, with 1 µg/mL LPS 24 h, range over the three treatments) is reported as 36.6–61.2%. Further, the “further reduction of ROS levels in FABP4 siRNA treated cells” value in data set [2] (10 µM plus 5 nM FABP4 siRNA, 1 µg/mL LPS 24 h) is “not able to reduce ROS levels any further”. Moreover, in data set [2] (setting [5]), the “reduction of ROS production vs LPS-alone” value turned out to be 27.8%. Besides, in data set [3], the “attenuation of LPS-mediated release of nitrite” value was determined as 51.3%. For the same compound, in data set [4] (10 µM, 1 µg/mL LPS 24 h), the “reduction in extracellular concentration of TNF-α relative to LPS-only” value was 25% and 24.8%. Also, the “reduction of TNF-α release vs LPS-alone” value in data set [4] (setting [5]) was found to be 15.7%.

The values above are taken from paper PMC12000251, “Evaluation of the Anti-Inflammatory Effects of Novel Fatty Acid-Binding Protein 4 Inhibitors in Microglia” (Journal of Neuroimmune Pharmacology, 2025).
